Each block holds one compound with its values, some of them ahead of it.
Experiments:
[1] = molecular target: T1, Dual specificity calcium/calmodulin-dependent 3',5'-cyclic nucleotide phosphodiesterase 1A (Homo sapiens, UniProt P54750); assay: Inhibition of PDE1A (unknown origin) using [3H]-cAMP as substrate incubated for 1 hr by SPA assay
[2] = Inhibition of PDE1 (unknown origin); design: species or system Homo sapiens
[3] = molecular target: T2, Dual specificity calcium/calmodulin-dependent 3',5'-cyclic nucleotide phosphodiesterase 1B (Homo sapiens, UniProt Q01064); assay: Inhibition of PDE1B (unknown origin) using [3H]-cGMP substrate incubated for 15 mins by liquid scintillation counting method
T2 sequence (Q01064 whole entry): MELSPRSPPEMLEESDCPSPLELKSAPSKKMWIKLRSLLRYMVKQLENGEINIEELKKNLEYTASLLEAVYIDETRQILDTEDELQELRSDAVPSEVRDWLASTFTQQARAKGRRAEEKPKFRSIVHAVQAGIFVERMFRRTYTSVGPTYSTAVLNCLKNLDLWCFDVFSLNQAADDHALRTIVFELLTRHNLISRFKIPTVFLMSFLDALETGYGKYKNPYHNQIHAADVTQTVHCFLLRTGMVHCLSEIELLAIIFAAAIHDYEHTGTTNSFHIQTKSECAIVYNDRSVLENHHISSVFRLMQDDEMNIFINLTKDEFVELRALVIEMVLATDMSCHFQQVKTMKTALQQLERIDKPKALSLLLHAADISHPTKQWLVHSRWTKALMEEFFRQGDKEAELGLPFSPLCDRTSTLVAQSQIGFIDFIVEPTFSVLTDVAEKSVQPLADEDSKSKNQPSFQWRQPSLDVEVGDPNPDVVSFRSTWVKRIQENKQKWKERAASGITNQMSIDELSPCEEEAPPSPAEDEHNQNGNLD

[4] = molecular target: 3',5'-cyclic-AMP phosphodiesterase 4D (Homo sapiens, UniProt Q08499); assay: Inhibition of PDE4D (unknown origin)
[5] = Metabolic stability in rat liver microsomes assessed as half life; type: ADME, Microsome
[6] = molecular target: cGMP-dependent 3',5'-cyclic phosphodiesterase (Homo sapiens, UniProt O00408); assay: Inhibition of full-length recombinant human PDE2A using [3H]-cGMP as substrate incubated for 10 mins by SPA assay
cGMP-dependent 3',5'-cyclic phosphodiesterase, sequence (O00408 whole entry): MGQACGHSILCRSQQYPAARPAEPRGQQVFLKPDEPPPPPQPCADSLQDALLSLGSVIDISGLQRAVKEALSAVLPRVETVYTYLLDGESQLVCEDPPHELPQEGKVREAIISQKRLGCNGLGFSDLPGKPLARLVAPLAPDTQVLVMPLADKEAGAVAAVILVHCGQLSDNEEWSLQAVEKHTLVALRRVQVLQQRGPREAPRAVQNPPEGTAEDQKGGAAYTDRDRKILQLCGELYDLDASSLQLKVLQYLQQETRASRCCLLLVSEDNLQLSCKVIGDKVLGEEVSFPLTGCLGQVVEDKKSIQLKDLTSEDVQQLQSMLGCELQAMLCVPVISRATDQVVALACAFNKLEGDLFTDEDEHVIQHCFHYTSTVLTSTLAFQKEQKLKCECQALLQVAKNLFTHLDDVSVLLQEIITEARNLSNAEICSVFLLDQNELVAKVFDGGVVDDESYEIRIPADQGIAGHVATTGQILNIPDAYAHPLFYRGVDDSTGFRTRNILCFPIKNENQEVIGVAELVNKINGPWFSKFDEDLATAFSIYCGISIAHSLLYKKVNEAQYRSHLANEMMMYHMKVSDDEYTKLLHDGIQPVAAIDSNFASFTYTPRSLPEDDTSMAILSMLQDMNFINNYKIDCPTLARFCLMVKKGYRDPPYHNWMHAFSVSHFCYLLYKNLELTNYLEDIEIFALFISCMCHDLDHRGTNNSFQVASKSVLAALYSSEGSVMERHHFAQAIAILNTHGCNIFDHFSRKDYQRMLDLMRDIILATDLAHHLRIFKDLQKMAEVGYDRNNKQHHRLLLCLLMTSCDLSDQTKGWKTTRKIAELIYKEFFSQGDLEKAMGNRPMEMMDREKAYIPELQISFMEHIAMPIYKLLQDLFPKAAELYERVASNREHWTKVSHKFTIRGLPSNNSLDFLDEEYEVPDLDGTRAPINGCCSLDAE

[7] = molecular target: High affinity 3',5'-cyclic-AMP phosphodiesterase 7A (Homo sapiens, UniProt Q13946); assay: Inhibition of PDE7A (unknown origin)
High affinity 3',5'-cyclic-AMP phosphodiesterase 7A, sequence (Q13946 whole entry): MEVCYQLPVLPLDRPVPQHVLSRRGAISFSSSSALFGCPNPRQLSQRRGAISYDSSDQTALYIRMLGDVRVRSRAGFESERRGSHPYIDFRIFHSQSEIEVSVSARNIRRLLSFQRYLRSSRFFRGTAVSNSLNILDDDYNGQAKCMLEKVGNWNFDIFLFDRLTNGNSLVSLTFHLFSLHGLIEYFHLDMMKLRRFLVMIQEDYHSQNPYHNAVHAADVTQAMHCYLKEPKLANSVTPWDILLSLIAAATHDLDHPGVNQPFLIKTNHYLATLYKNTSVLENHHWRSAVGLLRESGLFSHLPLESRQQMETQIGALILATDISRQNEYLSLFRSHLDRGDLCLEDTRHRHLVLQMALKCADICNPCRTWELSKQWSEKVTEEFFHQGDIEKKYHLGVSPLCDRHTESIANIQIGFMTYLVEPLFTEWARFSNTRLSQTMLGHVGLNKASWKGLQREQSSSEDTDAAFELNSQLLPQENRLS

[8] = molecular target: High affinity cAMP-specific and IBMX-insensitive 3',5'-cyclic phosphodiesterase 8A (Homo sapiens, UniProt O60658); assay: Inhibition of full-length recombinant human PDE8A using [3H]-cAMP as substrate incubated for 10 mins by SPA assay
[9] = molecular target: T1, Dual specificity calcium/calmodulin-dependent 3',5'-cyclic nucleotide phosphodiesterase 1A; assay: Inhibition of PDE1A3 (unknown origin)
[10] = molecular target: T2, Dual specificity calcium/calmodulin-dependent 3',5'-cyclic nucleotide phosphodiesterase 1B; assay: Inhibition of PDE1B (unknown origin)
[11] = Binding affinity to PDE1 (unknown origin) assessed as inhibition constant; design: species or system Homo sapiens
[12] = molecular target: cGMP-specific 3',5'-cyclic phosphodiesterase (Homo sapiens, UniProt O76074); assay: Inhibition of PDE5 (unknown origin)
[13] = molecular target: cGMP-inhibited 3',5'-cyclic phosphodiesterase 3B (Homo sapiens, UniProt Q13370); assay: Binding affinity to PDE3B (unknown origin) using [3H]cAMP as substrate assessed as inhibition constant incubated for 1 hrs by […] assay
[14] = molecular target: Dual specificity calcium/calmodulin-dependent 3',5'-cyclic nucleotide phosphodiesterase 1C (Homo sapiens, UniProt Q14123); assay: Inhibition of PDE1C (unknown origin) using [3H]-cAMP as substrate incubated for 1 hr by SPA assay
Dual specificity calcium/calmodulin-dependent 3',5'-cyclic nucleotide phosphodiesterase 1C, sequence (Q14123 whole entry): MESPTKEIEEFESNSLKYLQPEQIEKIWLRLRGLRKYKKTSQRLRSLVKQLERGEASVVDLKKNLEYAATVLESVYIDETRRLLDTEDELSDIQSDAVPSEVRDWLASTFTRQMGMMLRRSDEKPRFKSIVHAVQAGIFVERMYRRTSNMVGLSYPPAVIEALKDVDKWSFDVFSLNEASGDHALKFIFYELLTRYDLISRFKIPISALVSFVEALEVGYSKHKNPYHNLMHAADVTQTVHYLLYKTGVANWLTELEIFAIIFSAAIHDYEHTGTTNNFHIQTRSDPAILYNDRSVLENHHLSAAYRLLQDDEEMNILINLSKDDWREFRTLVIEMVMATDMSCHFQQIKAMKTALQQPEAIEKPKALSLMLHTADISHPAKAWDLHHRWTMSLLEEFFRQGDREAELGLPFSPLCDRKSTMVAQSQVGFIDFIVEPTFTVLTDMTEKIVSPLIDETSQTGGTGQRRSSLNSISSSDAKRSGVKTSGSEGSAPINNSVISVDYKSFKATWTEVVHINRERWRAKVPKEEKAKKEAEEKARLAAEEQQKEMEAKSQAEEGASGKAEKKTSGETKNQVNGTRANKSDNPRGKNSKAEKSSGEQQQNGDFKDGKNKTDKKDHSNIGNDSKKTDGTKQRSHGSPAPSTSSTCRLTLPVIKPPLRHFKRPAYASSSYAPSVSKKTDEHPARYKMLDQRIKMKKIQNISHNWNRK

[15] = Inhibition of PDE3 (unknown origin) by fluorescent based assay; design: species or system Homo sapiens
[16] = molecular target: T2, Dual specificity calcium/calmodulin-dependent 3',5'-cyclic nucleotide phosphodiesterase 1B; assay: Inhibition of PDE1B (unknown origin) using [3H]-cAMP as substrate incubated for 1 hr by SPA assay
[17] = molecular target: Phosphodiesterase 4 (Homo sapiens) (UniProt P27815+Q08499+Q07343+Q08493); assay: Inhibition of PDE4 (unknown origin) at 10 uM relative to control; type: protein assay
[18] = molecular target: cGMP-inhibited 3',5'-cyclic phosphodiesterase 3A (Homo sapiens, UniProt Q14432); assay: Inhibition of PDE3A (unknown origin)
cGMP-inhibited 3',5'-cyclic phosphodiesterase 3A, sequence (Q14432 whole entry): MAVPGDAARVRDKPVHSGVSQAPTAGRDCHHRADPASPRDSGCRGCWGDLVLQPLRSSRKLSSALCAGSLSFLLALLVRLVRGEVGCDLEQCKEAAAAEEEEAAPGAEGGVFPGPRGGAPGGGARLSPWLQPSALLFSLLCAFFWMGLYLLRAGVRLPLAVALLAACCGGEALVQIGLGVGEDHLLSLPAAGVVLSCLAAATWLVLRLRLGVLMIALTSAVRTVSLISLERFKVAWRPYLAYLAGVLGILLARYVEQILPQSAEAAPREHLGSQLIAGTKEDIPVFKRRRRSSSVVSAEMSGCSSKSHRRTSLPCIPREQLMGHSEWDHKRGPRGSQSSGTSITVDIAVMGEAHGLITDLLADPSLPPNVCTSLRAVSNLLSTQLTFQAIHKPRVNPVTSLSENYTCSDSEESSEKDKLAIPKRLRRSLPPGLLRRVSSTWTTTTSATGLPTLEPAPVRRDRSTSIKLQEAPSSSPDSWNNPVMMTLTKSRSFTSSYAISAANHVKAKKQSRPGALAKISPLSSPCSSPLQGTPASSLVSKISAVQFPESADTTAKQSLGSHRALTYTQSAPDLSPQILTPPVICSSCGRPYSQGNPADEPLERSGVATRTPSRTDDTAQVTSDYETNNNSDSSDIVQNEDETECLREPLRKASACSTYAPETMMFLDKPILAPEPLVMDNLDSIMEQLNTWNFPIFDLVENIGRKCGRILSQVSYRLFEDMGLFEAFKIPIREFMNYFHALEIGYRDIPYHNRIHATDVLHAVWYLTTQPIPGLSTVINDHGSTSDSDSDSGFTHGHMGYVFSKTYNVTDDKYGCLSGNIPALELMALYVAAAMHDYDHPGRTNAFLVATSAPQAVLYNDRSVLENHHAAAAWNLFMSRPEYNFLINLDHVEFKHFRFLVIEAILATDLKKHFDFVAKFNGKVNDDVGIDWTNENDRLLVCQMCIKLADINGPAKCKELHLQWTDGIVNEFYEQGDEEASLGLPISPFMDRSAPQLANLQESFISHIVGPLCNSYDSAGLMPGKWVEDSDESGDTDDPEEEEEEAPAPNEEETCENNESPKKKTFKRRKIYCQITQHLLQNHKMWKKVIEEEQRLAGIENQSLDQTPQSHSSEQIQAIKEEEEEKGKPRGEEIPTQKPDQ

[19] = molecular target: High affinity cGMP-specific 3',5'-cyclic phosphodiesterase 9A (Homo sapiens, UniProt O76083); assay: Inhibition of PDE9A (unknown origin)
High affinity cGMP-specific 3',5'-cyclic phosphodiesterase 9A, sequence (O76083 whole entry): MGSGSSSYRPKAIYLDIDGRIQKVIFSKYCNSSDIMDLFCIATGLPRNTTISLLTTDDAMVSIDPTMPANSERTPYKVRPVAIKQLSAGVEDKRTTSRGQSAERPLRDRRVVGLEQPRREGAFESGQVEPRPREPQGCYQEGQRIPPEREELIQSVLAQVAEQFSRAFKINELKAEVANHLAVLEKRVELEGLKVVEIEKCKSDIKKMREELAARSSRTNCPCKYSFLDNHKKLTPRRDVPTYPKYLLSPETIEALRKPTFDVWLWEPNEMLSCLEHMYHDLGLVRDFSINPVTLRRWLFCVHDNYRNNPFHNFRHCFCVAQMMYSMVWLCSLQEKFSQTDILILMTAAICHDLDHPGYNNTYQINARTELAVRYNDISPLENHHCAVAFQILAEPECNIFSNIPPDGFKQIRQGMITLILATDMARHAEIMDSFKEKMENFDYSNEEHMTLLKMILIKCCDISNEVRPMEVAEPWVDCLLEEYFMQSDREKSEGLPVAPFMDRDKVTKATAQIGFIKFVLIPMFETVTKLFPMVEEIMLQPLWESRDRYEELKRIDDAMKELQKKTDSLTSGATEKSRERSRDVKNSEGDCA

[20] = Inhibition of PDE9 (unknown origin) by fluorescent based assay; design: species or system Homo sapiens

T1 sequence (P54750 whole entry): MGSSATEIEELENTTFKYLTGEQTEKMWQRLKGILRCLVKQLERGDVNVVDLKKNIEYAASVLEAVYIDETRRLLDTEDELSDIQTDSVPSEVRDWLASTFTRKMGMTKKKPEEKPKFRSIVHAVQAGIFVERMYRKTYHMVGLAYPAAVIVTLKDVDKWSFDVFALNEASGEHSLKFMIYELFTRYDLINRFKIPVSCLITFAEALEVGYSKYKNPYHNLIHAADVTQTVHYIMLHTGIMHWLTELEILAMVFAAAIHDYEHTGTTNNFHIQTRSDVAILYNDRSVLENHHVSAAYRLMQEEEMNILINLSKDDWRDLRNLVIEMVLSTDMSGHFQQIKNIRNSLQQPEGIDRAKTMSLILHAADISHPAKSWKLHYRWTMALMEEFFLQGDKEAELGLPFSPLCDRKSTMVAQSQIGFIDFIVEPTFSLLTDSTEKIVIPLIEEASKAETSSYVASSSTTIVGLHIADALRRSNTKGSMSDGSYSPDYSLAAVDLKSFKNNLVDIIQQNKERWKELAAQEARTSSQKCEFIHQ

Compound: COCCOC(=O)C1=C(C)NC(C)=C(C(=O)OC(C)C)C1c1cccc([N+](=O)[O-])c1 (stereo not given) [NIMODIPINE]
IC50 [1]: 2 µM

Compound: Cn1c(=O)c2c(ncn2C)n(C)c1=O [CAFFEINE]
IC50 [2]: 479 µM

Compound: O=c1c2c(Cc3ccccc3)n[nH]c2c2cccnc2n1-c1ccccc1
IC50 [9]: 0.032 µM
IC50 [10]: 0.79 µM

Compound: CNc1ncnc2c1ncn2Cc1ccccc1F [BW-A78U]
Ki [11]: 3.7 µM
IC50 [12]: 6.5 µM
Ki [13]: 35 µM

Compound: COc1cc2ncnc(N3C[C@@H](Cl)[C@@H]4OC[C@@H](OC)[C@@H]43)c2cc1OC
IC50 [14]: 2.4 µM

Compound: COc1cc2ncnc(N3C[C@@H](OO)[C@@H]4OC[C@@H](OC(C)=O)[C@@H]43)c2cc1OC
IC50 [14]: 2.2 µM

Compound: COCc1nc2c([nH]1)c(=O)n(C)c(=O)n2CC(C)C
IC50 [2]: 8 µM
IC50 [15]: 0.24 µM
IC50 [12]: 10 µM

Now from value to compound:

IC50 [3]: 0.021 µM
IC50 [4]: 1.5 µM
half-life [5]: 28.5 min
IC50 [6]: 8.52 µM
IC50 [7]: > 2.5 µM
IC50 [8]: > 10 µM
Compound: Cn1c(=O)c2c(Nc3ccc(F)cc3)n(Cc3ccc(S(C)(=O)=O)cc3)nc2n(CC2CC2)c1=O

IC50 [2]: 0.396 µM
Compound: CCCc1nn(C)c2c(=O)[nH]c(-c3cc(S(=O)(=O)N4CCN(C)CC4)ccc3OCC)nc12

IC50 [3]: 0.0038 µM
half-life [5]: 4.5 min
Compound: Cn1c(=O)c2c(Nc3ccccc3)n(Cc3ccc(-c4cccc(F)n4)cc3)nc2n(CC2CC2)c1=O

IC50 [10]: < 0.1 µM
Compound: COc1ccc(Cn2c(=O)n3ncnc3c3cc(CN4CCCOCC4)sc32)cc1

IC50 [1]: 4.66 µM
IC50 [16]: 2.82 µM
IC50 [14]: 0.573 µM
inhibition [17]: 27%
Compound: COc1ccc2c(N3C[C@@H](Cl)[C@@H]4OC[C@@H](OCc5ccccc5)[C@@H]43)ncnc2c1OC

IC50 [2]: 0.0029 µM
IC50 [18]: > 10 µM
half-life [5]: 15.8 min
IC50 [7]: > 10 µM
IC50 [19]: > 10 µM
Compound: C[C@@H](Nc1nc2c(cnn2C(C)(C)C)c(=O)n1Cc1ccc(F)cc1)c1ccc(Cl)cc1

IC50 [2]: 30 µM
Compound: CCOC(=O)C1=C[C@]2(CC)CCCN3CCc4c(n1c1ccccc41)[C@@H]32 [VINPOCETINE]

Ki [11]: 5.8e-05 µM
Compound: CN1C(=O)c2c(nn(Cc3ccc(-c4cccc(F)n4)cc3)c2Nc2ccccc2)N2C1=N[C@@H]1CCC[C@@H]12 [LENRISPODUN PHOSPHATE]

IC50 [2]: 0.08 µM
IC50 [20]: 0.058 µM
Compound: C[C@@H](Nc1nc2c(cnn2C2CCCC2)c(=O)[nH]1)c1ccc(Cl)cc1
